Experimental data: PubChem BioAssay AID720589 (Broad Institute, 2013)
Activity calls are given as the source filed them.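 The calls were made as follows: active = fitted curve drops below -35% activity at a concentration within twice the top valid tested dose; inconclusive = no clear call, values can overlap the other calls; inactive = signal rising instead of falling, among other cases.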

Experiment: ATP-based viability loss in HepG2 cells – cell-based, CellTiter-Glo luminescence, cherry-pick, set 3, cytotoxicity control, dose response (AID 720589)
Conditions: HepG2 viability, ATP luminescence (CellTiter-Glo), 72 h; at 0.9 µM; active compounds read low; 0% = untreated, negative = ATP loss

Structure (SMILES) | max activity
COC(=O)c1cccc(NC(=O)NC(=O)c2ccccc2Cl)c1 | -19.2% (inactive)

Same assay, conditions: HepG2 viability, ATP luminescence (CellTiter-Glo), 72 h; at 1 µM; active compounds read low; 0% = untreated, negative = ATP loss

Structure (SMILES) | max activity
C[C@H]1CN([C@@H](C)CO)C(=O)Cc2cc(NC(=O)CCCCCC(=O)Nc3ccccc3N)ccc2O[C@H]1CN(C)Cc1ccc(C(F)(F)F)cc1 | -22.7% (inactive)

Same assay, conditions: HepG2 viability, ATP luminescence (CellTiter-Glo), 72 h; at 2.85 µM; active compounds read low; 0% = untreated, negative = ATP loss

Structure (SMILES) | max activity
CC(Oc1cccc(Cl)c1)C(=O)NCCCCc1ccccc1 (stereo not drawn) | 18.7% (inactive)
C[C@@H]1CN([C@H](C)CO)S(=O)(=O)c2ccc(C#CC3CC3)cc2O[C@@H]1CN(C)Cc1ccccc1F | -22% (inactive)
C(=Cc1c[nH]c2ccccc12)c1ccc2ccccc2n1 | -21.4% (inactive)
Oc1c(Cl)cc(Cl)c(Cl)c1Cc1c(O)c(Cl)cc(Cl)c1Cl | -40.1% (inactive)
Cc1ccccc1N=CC1=C(O)c2ccccc2C1=O | 18.8% (inactive)
COCC(=O)Nc1ccc2c(c1)[C@@H]1C[C@@H](CC(=O)NCc3ccc(-c4ccccc4)cc3)O[C@@H](CO)[C@@H]1O2 | -28% (inactive)
N#C[C@@H]1[C@H](c2ccc(C#Cc3ccccc3F)cc2)[C@@H](CO)N1C(=O)c1cccnc1 | -22% (inactive)
COc1ccc(NC(=O)c2cc3ccccc3oc2=O)cc1 | -36.9% (inactive)

Same assay, conditions: HepG2 viability, ATP luminescence (CellTiter-Glo), 72 h; at 8 µM; active compounds read low; 0% = untreated, negative = ATP loss

Structure (SMILES) | max activity
COc1ccc(C2c3cc4c(cc3OC(NNC(N)=O)C2C)OCO4)cc1 (stereo not drawn) | -29.8% (inactive)
CO[C@H]1CN(C)C(=O)c2cc(NC(=O)NC(C)C)ccc2OC[C@H](C)N(Cc2ccc(-c3ccccn3)cc2)C[C@@H]1C | -24.8% (inactive)
COc1ccc2oc(-c3ccccc3)cc(=O)c2c1 | 25.1% (inactive)
Cc1ccc2c(=O)n3c(nc2c1)C(Cc1ccc(O)cc1)NC(=O)c1cc2ccccc2cc1-3 (stereo not drawn) | -16.9% (inactive)
O=C(Nc1cccc(Oc2ccc3c(c2)C(=O)NC3=O)c1)c1cccs1 | -36% (inactive)

Same assay, conditions: HepG2 viability, ATP luminescence (CellTiter-Glo), 72 h; at 23.5 µM; active compounds read low; 0% = untreated, negative = ATP loss

Structure (SMILES) | max activity
N#C[C@H]1N[C@H](CO)[C@H]1c1ccc(C#Cc2ccccc2F)cc1 | -26.9% (inactive)

Same assay, conditions: HepG2 viability, ATP luminescence (CellTiter-Glo), 72 h; at 26 µM; active compounds read low; 0% = untreated, negative = ATP loss

Structure (SMILES) | max activity
CCNC(=O)[C@@H]1[C@@H](CO)[C@@H]2Cn3c(ccc(C4=CCCCC4)c3=O)[C@H]1N2CC | -22.3% (inactive)
C[C@@H]1CN([C@@H](C)CO)C(=O)Cc2cc(N(C)C)ccc2O[C@@H]1CN(C)Cc1ccccc1 | -20.7% (inactive)
O=c1[nH]c(/C=C2\C=Nc3ccccc32)c(O)n1Cc1ccccc1F | -19.8% (inactive)
O=C(C[C@H]1C[C@H]2c3cc(NS(=O)(=O)c4ccc(F)cc4)ccc3O[C@H]2[C@H](CO)O1)NCc1ccc(Oc2ccccc2)cc1 | 21.5% (inactive)
CC(=O)ON=C1C=CC(=C(C#N)c2ccccc2)C=C1 | -27.6% (inactive)
COc1ccc(-c2ccc3c(c2)[C@H]2[C@H](CCN2S(=O)(=O)c2ccc(OC)cc2)[C@@H](CO)N3C)cc1 | -27% (inactive)
CC1=NN(c2ccc(C)cc2)C(=O)/C1=C\C=C\c1ccccc1 | -23.5% (inactive)
Cc1nc2ncccn2c1-c1csc(Nc2ccc(O)cc2)n1 | -23.1% (inactive)
C#CCOCCOCCOCCNc1nc(N2CCN(C(=O)CCCCCCCCCCNC(=O)Cn3cc(C[C@@H](C)O)nn3)CC2)nc(N2CCN(C(=O)CCCCCCCCCCNC(=O)[C@H](CO)n3cc(CCCSC)nn3)CC2)n1 | 39.2% (inactive)
COc1ccc(CCC(C)NCC2CCCCC2)cc1 (stereo not drawn) | -15.7% (inactive)
CO[C@H]1CN(C)C(=O)c2cc(NC(=O)c3ccc(Oc4ccccc4)cc3)ccc2OC[C@H](C)NC[C@@H]1C | -95.1% (inactive)
COc1ccc(C(C)(O)c2nc(-c3cccc(F)c3)cs2)cc1 (stereo not drawn) | -21.6% (inactive)
CN1c2ccc(-c3ccc(C#N)cc3)cc2[C@H]2[C@H](CCN2S(=O)(=O)c2cccc(F)c2)[C@@H]1CO | 33.3% (inactive)
C(=N\Nc1ccc2ccccc2n1)/c1ccc2c(c1)OCCO2 | -26.2% (inactive)
O=C(CNC(c1ccccc1)c1ccccc1)Nc1ccccc1-c1ccccc1 | 10.7% (inactive)
O=C1C(=O)N(CCS(=O)(=O)c2ccccc2)c2ccccc21 | 24.1% (inactive)
CCCCCCCCn1c2c(c(=N)c3c1CCC3)CCCC2 | -46.7% (inactive)
CN(CCO)c1ccc(/C=N/Nc2nncc3ccccc23)cc1 | -29.7% (inactive)
Nc1sc(-c2ccccc2)cc1-c1n[nH]c(=S)n1C1CCCCC1 | -25.2% (inactive)
O=C(O)c1ccc(N/N=C/c2ccc(OC(=O)c3cccc(Cl)c3)cc2)cc1 | -33.2% (inactive)
Oc1c(Cl)cc(Cl)c2cccnc12 | -31.8% (inactive)
COc1ccc(-c2nc3c(s2)CCc2onc(-c4ccc(OC)cc4)c2-3)cc1 | -25.8% (inactive)
